Results reported in ChEMBL document CHEMBL1138630, “Antioxidant activities of a new lignan and a neolignan from Saururus chinensis” (Bioorg Med Chem Lett, 2004).

Key:
Cell line [1] = assay: Antioxidant activity on copper-induced peroxidation in low-density lipoprotein at 10 uM; expressed as area of absorbance/mm; assay type: functional, Homo sapiens
Cell line [2] = assay: Antioxidant activity on copper-induced peroxidation in low-density lipoprotein at 20 uM; expressed as area of absorbance/mm; assay type: functional, Homo sapiens
Cell line [3] = assay: Effect of compound (0.1 uM) on macrophage-mediated oxidation of LDL was measured by MDA levels in the presence of Cu2+; assay type: functional, Homo sapiens
Cell line [4] = assay: Concentration required for inhibition of Cu+2-induced peroxidation in low-density lipoprotein of human; assay type: functional, cell-based
Cell line [5] = assay: Effect of compound (1 uM) on macrophage-mediated oxidation of LDL was measured by MDA levels in the presence of Cu2+; assay type: functional, Homo sapiens

| Compound | Activity (Cell line [1]) | Activity (Cell line [2]) | Activity (Cell line [3]) | IC50 (Cell line [4]) | Activity (Cell line [5]) |
| --- | --- | --- | --- | --- | --- |
| COc1ccc(C[C@H](C)[C@@H](C)Cc2cc(OC)c(O)cc2O)cc1O | 6.45 AU/mm | 7.66 AU/mm | 358.9 nmol/mg LDL | 3.3 µM | – |
| C/C=C/c1ccc(O[C@@H](C)[C@@H](O)c2ccc(O)c(OC)c2)c(OC)c1 [MACHILIN D] | 5.81 AU/mm | 6.78 AU/mm | 118.3 nmol/mg LDL | 3.8 µM | – |
| CC(C)(Sc1cc(C(C)(C)C)c(O)c(C(C)(C)C)c1)Sc1cc(C(C)(C)C)c(O)c(C(C)(C)C)c1 [PROBUCOL] | 4.32 AU/mm | 6.7 AU/mm | – | 2.8 µM | 412.6 nmol/mg LDL |
